Experimental data published in publication PMC12107553 (ACS chemical neuroscience, 2024).
Like-named read-outs stand apart in the source and are kept apart here.

Assays:
GSK-3β = GSK-3β (Homo sapiens, UniProt P49841); assay: GSK-3β enzyme activity assay; format: biochemical; conditions: for GSK-3β inhibition, result in words: titration from 20 μM
[1] = biological target: T1, HIV reverse transcriptase (RT) (Human immunodeficiency virus type 1 group M subtype B, UniProt P03366); conditions: read-out: HIV RT IC50; marked *, previously reported data ref 19; cited from earlier work
HIV, WT = conditions: read-out: HIV, WT EC50, cited from earlier work
[2] = biological target: T1, HIV reverse transcriptase (RT); assay: NNRTI assay; format: biochemical

GSK-3β, sequence (P49841 whole entry): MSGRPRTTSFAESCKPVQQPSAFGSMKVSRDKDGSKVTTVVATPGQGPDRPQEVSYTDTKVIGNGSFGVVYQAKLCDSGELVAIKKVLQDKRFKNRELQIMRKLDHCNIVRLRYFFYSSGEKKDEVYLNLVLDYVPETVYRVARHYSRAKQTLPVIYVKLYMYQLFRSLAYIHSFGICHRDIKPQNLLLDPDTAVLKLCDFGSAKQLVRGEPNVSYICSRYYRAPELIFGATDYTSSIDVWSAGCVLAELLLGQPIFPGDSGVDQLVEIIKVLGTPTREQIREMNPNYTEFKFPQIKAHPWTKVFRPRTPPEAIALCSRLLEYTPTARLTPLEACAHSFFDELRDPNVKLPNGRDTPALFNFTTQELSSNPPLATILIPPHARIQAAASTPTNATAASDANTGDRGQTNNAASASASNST

For `Cn1c(Cn2ccc(C(F)(F)F)c(Oc3cc(Cl)cc(C#N)c3)c2=O)n[nH]c1=O` [Doravirine], the IC50 (GSK-3β) is listed as > 20 µM, the “GSK-3β inhibition, result in words” value (GSK-3β) is listed as “not inhibitors” and the IC50 [1] is listed as 0.0207 µM. For the same molecule, the EC50 (HIV, WT; whole cell activity ref 22) was 0.013 µM.

In the case of `O=C1Nc2ccc(Cl)cc2[C@@](C#CC2CC2)(C(F)(F)F)O1` [Efavirenz], the IC50 (GSK-3β) is listed as > 20 µM, the “GSK-3β inhibition, result in words” value (GSK-3β) is listed as “not inhibitors” and the EC50 (HIV, WT; whole cell activity ref 21) is listed as 0.002 µM.

For `Cc1cc(C#N)cc(C)c1Oc1nc(Nc2ccc(C#N)cc2)nc(N)c1Br` [Etravirine], the IC50 (GSK-3β) is given as 0.619 µM and the EC50 (HIV, WT; whole cell activity ref 21) is given as 0.001 µM.

In the case of `Cc1ccnc2c1NC(=O)c1cccnc1N2C1CC1` [Nevirapine], the IC50 (GSK-3β) is listed as 1.67 µM and the EC50 (HIV, WT; whole cell activity ref 21) is listed as 0.11 µM.

For `Cc1cc(/C=C/C#N)cc(C)c1Nc1ccnc(Nc2ccc(C#N)cc2)n1` [Rilpivirine], the IC50 [2] is listed as 0.16 µM, the IC50 (GSK-3β) is listed as 0.502 µM and the EC50 (HIV, WT; whole cell activity ref 21) is listed as 0.00067 µM.
